Experimental data published in PubChem BioAssay (NCI).
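Method: 48-hour compound exposure of cells in 96-well plates, five concentrations, linear interpolation of endpoints. GI50 is the concentration that inhibits growth by half. At the TGI there is no net growth.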

Columns and labels:
Assay in all cases: NCI tumour cell line growth inhibition, 48 h
BT-549 breast = system: BT-549 breast
HL-60(TB) leukemia = system: HL-60(TB) leukemia
HOP-92 NSCLC = system: HOP-92 NSCLC
HT29 colon = system: HT29 colon
PC-3 prostate = system: PC-3 prostate
SK-MEL-5 melanoma = system: SK-MEL-5 melanoma
SNB-75 CNS = system: SNB-75 CNS
UO-31 renal = system: UO-31 renal
SNB-78 CNS = system: SNB-78 CNS
DMS 273 small cell lung = system: DMS 273 small cell lung

Compound | GI50 (BT-549 breast) [µM] | TGI (BT-549 breast) [µM] | GI50 (HL-60(TB) leukemia) [µM] | TGI (HL-60(TB) leukemia) [µM] | GI50 (HOP-92 NSCLC) [µM] | TGI (HOP-92 NSCLC) [µM] | GI50 (HT29 colon) [µM] | TGI (HT29 colon) [µM] | GI50 (PC-3 prostate) [µM] | TGI (PC-3 prostate) [µM] | GI50 (SK-MEL-5 melanoma) [µM] | TGI (SK-MEL-5 melanoma) [µM] | GI50 (SNB-75 CNS) [µM] | TGI (SNB-75 CNS) [µM] | GI50 (UO-31 renal) [µM] | TGI (UO-31 renal) [µM] | TGI (SNB-78 CNS) [µM] | TGI (DMS 273 small cell lung) [µM]
COc1cc2nc(N3CCCC3)nc(Nc3ccccc3)c2cc1OC | 1.69 | 3.25 | 0.635 | 2.42 | 1.39 | 2.99 | 1.34 | 3.11 | 1.71 | 3.45 | 1.71 | 3.12 | 1.39 | 2.7 | 1.39 | 2.84 |  | 
CC1=C(C(=O)CC(=O)C(=O)Nc2ccccc2)Sc2ccccc2N1 |  |  |  | > 100 |  | > 100 |  | > 100 |  |  |  | > 100 |  |  |  | > 100 | > 100 | 
CCc1ccc(Nc2cc(=O)[nH]c(=S)n2C)cc1 |  |  |  | > 100 |  | > 100 |  | > 100 |  |  |  | > 100 |  | > 100 |  | > 100 | > 100 | > 100
Cc1ccc(N=Nc2c(N)nn(-c3ccccc3)c2N)cc1 | 0.737 | > 100 | 0.638 | > 21.6 | 3.44 | 9.05 | 0.353 |  | 1.53 | 6.17 | 1.65 | > 100 | 2.3 | > 78.3 | 7.97 | > 100 |  | 
CCCCCCCCCCCC[n+]1ccccc1 | 1.01 | 3.03 | 0.422 | 1.99 | 0.958 | 3.1 | 0.381 | 5.47 | 0.374 | 2.76 | 1.06 | 2.26 | 1.16 | 4.05 | 1.72 | 11 |  | 
NC(=S)NNC(=O)CCC(=O)Nc1ccc(Cl)cc1Cl |  |  |  | > 100 |  | > 100 |  | > 100 |  |  |  | > 100 |  | > 100 |  | > 100 | > 100 | > 100
C[C@H]1[C@H](C)CC[C@]2(C(=O)O)CC[C@]3(C)C(=CC[C@@H]4[C@@]5(C)CC[C@H](OC(=O)/C=C/c6ccc(O)cc6)C(C)(C)[C@@H]5CC[C@]43C)[C@H]12 | 5.11 | 13.4 | 6.53 | 34.3 | 16.6 | 37.2 | 18.8 | > 100 | 6.94 | 24.6 | 4.91 | 14.9 | 4.82 | 28.9 | 3.59 | 29.8 |  | 
CC1(C)CC(OCCCC[P+](c2ccccc2)(c2ccccc2)c2ccccc2)CC(C)(C)N1O | 0.274 | 1.04 | 0.125 | 0.421 | 0.199 | 0.903 | 0.34 | 7.26 | 0.205 | 4.04 | 0.163 | 0.358 | 0.331 | 3.61 | 2.66 | 8.29 |  | 
